Results on four compounds are retold here after PMC5110965, “Evolutionarily conserved odorant receptor function questions ecological context of octenol role in mosquitoes” (Scientific Reports, 2016).

Structures are written as SMILES.

Test [1] has as its system T1, TaOR8.
T1 construct: gene Or8; with TaORco
In words: two-electrode voltage clamp in Xenopus oocytes, concentration-response. The format is cell-based, Toxorhynchites amboinensis. In general terms: Two-electrode voltage clamp holds a large cell at a set potential and records current.

The test system of test [2] is T1, TaOR8. Put plainly: two-electrode voltage clamp; […] DEET against […] (R)-octenol response. It counts as cell-based, Toxorhynchites amboinensis. The settings on record: 1000 µM.

For the compound `C=CC(O)CCCCC` (racemic) [(RS), (RS)-1-octen-3-ol], a half-maximal effect in the test on TaOR8 [1] (EC50) was put at 3.29 µM.

Regarding `C=C[C@H](O)CCCCC` [(R), (R)-(−)-1-octen-3-ol], the EC50 – broadly, the concentration that produces a half-maximal response – in the test with TaOR8 [1] came out at 0.401 µM.

On to `C=C[C@@H](O)CCCCC` [(S), (S)-(+)-1-octen-3-ol], for which, in the test on TaOR8 [1], the EC50 came to 50.6 µM.

As to `CCN(CC)C(=O)c1cccc(C)c1` [DEET, N,N-Diethyl-meta-toluamide], the “% inhibition at 10^-3 M” value with TaOR8 [2] was determined as 90.
